According to US20250115598A1 (Anaxis Pharma Pty Ltd, priority 2021, published 2025):

How the values were obtained:
human RIPK3 = human RIPK3 (Homo sapiens (Human), UniProt Q9Y572); experiment: KINOMEscan binding assay, human RIPK3; conditions: Table 21
Description: (§1) Binding affinity of the test compounds for human MLKL (full length), mouse MLKL (full length), human RIPK1 and human RIPK3 was determined using the KINOMEscan™ technology developed by DiscoverX (USA; http://www.discoverx.com). The assay was conducted according to manufacturer instructions.
(§2) Kinase assays. For most assays, kinase-tagged T7 phage strains were grown in parallel in 24-well blocks in an E. coli host derived from the BL21 strain. E. coli were grown to log-phase and infected with T7 phage from a frozen stock (multiplicity of infection=0.4) and incubated with shaking at 32° C. until lysis (90-150 minutes). The lysates were centrifuged (6,000×g) and filtered (0.2 μm) to remove cell debris. The remaining kinases were produced in HEK-293 cells and subsequently tagged with DNA for qPCR detection. […] The liganded beads were blocked with excess biotin and washed with blocking buffer (SeaBlock (Pierce), 1% BSA, 0.05% Tween 20, 1 mM DTT) to remove unbound ligand and to reduce non-specific phage binding. […] All reactions were performed in polypropylene 384-well plates in a final volume of 20 μL. […] The kinase concentration in the eluates was measured by qPCR.
(§3) An 11-point 3-fold serial dilution of each test compound was prepared in 100% DMSO at 100× final test concentration and subsequently diluted to 1× in the assay (final DMSO concentration=1%). Most Kos were determined using a compound top concentration=30,000 nM.
(§4) KD for each test compound was calculated with a standard dose-response curve using the Hill equation (equation (1)): […]
(§5) The Hill Slope was set to −1.
(§6) Curves were fitted using a non-linear least square fit with the Levenberg-Marquardt algorithm.

human RIPK1 = human RIPK1 (Homo sapiens (Human), UniProt Q13546); experiment: KINOMEscan binding assay, human RIPK1; conditions: Table 21
human RIPK1, sequence (Q13546 whole entry): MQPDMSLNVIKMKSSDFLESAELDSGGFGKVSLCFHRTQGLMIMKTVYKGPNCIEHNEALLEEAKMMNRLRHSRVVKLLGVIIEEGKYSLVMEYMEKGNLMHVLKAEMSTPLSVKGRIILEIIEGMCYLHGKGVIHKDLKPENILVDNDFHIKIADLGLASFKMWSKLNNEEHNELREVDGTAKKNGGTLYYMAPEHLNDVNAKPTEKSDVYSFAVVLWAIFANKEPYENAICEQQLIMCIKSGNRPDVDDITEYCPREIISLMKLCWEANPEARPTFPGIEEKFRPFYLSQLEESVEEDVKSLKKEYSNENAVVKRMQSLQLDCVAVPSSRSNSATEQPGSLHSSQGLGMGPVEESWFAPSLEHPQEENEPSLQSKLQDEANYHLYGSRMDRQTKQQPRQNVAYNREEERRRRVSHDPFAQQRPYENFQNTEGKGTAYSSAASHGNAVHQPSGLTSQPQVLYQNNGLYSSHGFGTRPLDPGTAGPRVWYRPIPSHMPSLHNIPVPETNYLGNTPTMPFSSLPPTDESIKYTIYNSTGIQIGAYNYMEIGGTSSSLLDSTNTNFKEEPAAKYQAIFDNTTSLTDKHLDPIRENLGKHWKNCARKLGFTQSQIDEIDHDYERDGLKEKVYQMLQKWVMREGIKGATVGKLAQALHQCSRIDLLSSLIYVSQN
Description: as §1, §2, §3, §4, §5, §6

human RIPK3, sequence (Q9Y572 whole entry): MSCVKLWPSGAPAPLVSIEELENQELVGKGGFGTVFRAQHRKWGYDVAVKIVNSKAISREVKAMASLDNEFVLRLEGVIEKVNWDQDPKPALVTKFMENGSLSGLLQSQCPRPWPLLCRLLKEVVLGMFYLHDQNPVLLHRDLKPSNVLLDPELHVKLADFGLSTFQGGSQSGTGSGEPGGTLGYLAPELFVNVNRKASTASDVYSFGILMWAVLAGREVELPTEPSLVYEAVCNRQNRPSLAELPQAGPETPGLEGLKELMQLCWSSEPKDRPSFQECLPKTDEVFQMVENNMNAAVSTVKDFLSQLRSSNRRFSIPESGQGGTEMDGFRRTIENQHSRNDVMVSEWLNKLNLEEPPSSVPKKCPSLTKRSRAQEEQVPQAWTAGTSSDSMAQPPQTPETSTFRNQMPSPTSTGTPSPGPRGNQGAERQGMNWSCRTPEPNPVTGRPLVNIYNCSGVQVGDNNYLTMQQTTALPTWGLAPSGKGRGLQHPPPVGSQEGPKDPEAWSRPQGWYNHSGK

Kd (human RIPK3) [µM]	Kd (human RIPK1) [µM]	Structure (SMILES)
> 10	> 10	C[C@H](Oc1cc(-c2nn(C)c3c(-c4cccc(Cl)c4)cnc(N)c23)ccc1NS(=O)(=O)C(F)F)c1ccc(F)cc1 [Compound 84, (S)-N-(4-(4-amino-7-(3-chlorophenyl)-1-methyl-1H-pyrazolo[4,3-c]pyridin-3-yl)-2-(1-(4-fluorophenyl)ethoxy)phenyl)-1,1-difluoromethanesulfonamide]
> 10	> 10	C[C@H](Oc1cc(-c2nn(C)c3c(-c4ccccc4Cl)cnc(N)c23)ccc1NS(=O)(=O)C(F)F)c1ccc(F)cc1 [Compound 85, (S)-N-(4-(4-amino-7-(2-chlorophenyl)-1-methyl-1H-pyrazolo[4,3-c]pyridin-3-yl)-2-(1-(4-fluorophenyl)ethoxy)phenyl)-1,1-difluoromethanesulfonamide]
> 10	> 10	C[C@H](Oc1cc(-c2nn(C)c3c(-c4ccccc4)cnc(N)c23)ccc1NS(=O)(=O)C(F)F)c1ccc(F)cc1 [Compound 86, (S)-N-(4-(4-amino-1-methyl-7-phenyl-1H-pyrazolo[4,3-c]pyridin-3-yl)-2-(1-(4-fluorophenyl)ethoxy)phenyl)-1,1-difluoromethanesulfonamide]
> 10	> 10	C[C@H](Oc1cc(-c2nn(C)c3c(-c4ccc(Cl)cc4)cnc(N)c23)ccc1NS(=O)(=O)C(F)F)c1ccc(F)cc1 [Compound 87, (S)-N-(4-(4-amino-7-(4-chlorophenyl)-1-methyl-1H-pyrazolo[4,3-c]pyridin-3-yl)-2-(1-(4-fluorophenyl)ethoxy)phenyl)-1,1-difluoromethanesulfonamide]
> 10	> 10	C[C@H](Oc1cc(-c2nn(C)c3c(-c4cnn5c4CNCC5)cnc(N)c23)ccc1NS(=O)(=O)C(F)F)c1ccc(F)cc1 [Compound 90, (S)—N-(4-(4-amino-1-methyl-7-(4,5,6,7-tetrahydropyrazolo[1,5-a]pyrazin-3-yl)-1H-pyrazolo[4,3-c]pyridin-3-yl)-2-(1-(4-fluorophenyl)ethoxy)phenyl)-1,1-difluoromethanesulfonamide]
> 10	> 10	CC1CNCC(n2cc(-c3cnc(N)c4c(-c5ccc(NS(=O)(=O)C(F)F)c(O[C@@H](C)c6ccc(F)cc6)c5)nn(C)c34)cn2)C1 (stereo partly drawn) [Compound 95, N-(4-(4-amino-1-methyl-7-(1-(5-methylpiperidin-3-yl)-1H-pyrazol-4-yl)-1H-pyrazolo[4,3-c]pyridin-3-yl)-2-((S)-1-(4-fluorophenyl)ethoxy)phenyl)-1,1-difluoromethane-sulfonamide]
> 10	> 10	C[C@H](Oc1cc(-c2nn(C)c3c(-c4cnn(C5CC6(C5)CN(C)C6)c4)cnc(N)c23)ccc1NS(=O)(=O)C(F)F)c1ccc(F)cc1 [Compound 99, (S)-N-(4-(4-amino-1-methyl-7-(1-(2-methyl-2-azaspiro[3.3]heptan-6-yl)-1H-pyrazol-4-yl)-1H-pyrazolo[4,3-c]pyridin-3-yl)-2-(1-(4-fluorophenyl)eth-oxy)phenyl)-1,1-difluoromethane-sulfonamide]
> 10	> 10	C[C@H](Oc1cc(-c2nn(C)c3c(-c4cnc(N(C)C)nc4)cnc(N)c23)ccc1NS(=O)(=O)C(F)F)c1ccc(F)cc1 [Compound 106, (S)-N-(4-(4-amino-7-(2-(dimethylamino)pyrimidin-5-yl)-1-methyl-1H-pyrazolo[4,3-c]pyridin-3-yl)-2-(1-(4-fluorophenyl)ethoxy)phenyl)-1,1-difluoromethanesulfonamide]
> 10	> 10	COC[C@@H](Oc1cc(-c2nn(C)c3c(-c4cnn(C5CCOCC5)c4)cnc(N)c23)ccc1NS(=O)(=O)C(F)F)c1ccc(F)cc1 [Compound 112, (S)—N-(4-(4-amino-1-methyl-7-(1-(tetrahydro-2H-pyran-4-yl)-1H-pyrazol-4-yl)-1H-pyrazolo[4,3-c]pyridin-3-yl)-2-(1-(4-fluorophenyl)-2-methoxyethoxy)phenyl)-1,1-difluoromethanesulfonamide]
> 10	> 10	C[C@H](Oc1cc(-c2nn(C)c3c(-c4cnc(N5CCCC5)nc4)cnc(N)c23)ccc1NS(=O)(=O)C(F)F)c1ccc(F)cc1 [Compound 114, (S)-N-(4-(4-amino-1-methyl-7-(2-(pyrrolidin-1-yl)pyrimidin-5-yl)-1H-pyrazolo[4,3-c]pyridin-3-yl)-2-(1-(4-fluorophenyl)ethoxy)phenyl)-1,1-difluoromethanesulfonamide]
> 10	> 10	C[C@H](Oc1cc(-c2nn(C)c3c(-c4ccc(N5CCOCC5)nc4)cnc(N)c23)ccc1NS(=O)(=O)C(F)F)c1ccc(F)cc1 [Compound 115, (S)-N-(4-(4-amino-1-methyl-7-(6-morpholinopyridin-3-yl)-1H-pyrazolo[4,3-c]pyridin-3-yl)-2-(1-(4-fluorophenyl)ethoxy)phenyl)-1,1-difluoromethanesulfonamide]
> 10	> 10	C[C@H](Oc1cc(-c2nn(C)c3c(-c4cnn(CC(F)(F)F)c4)cnc(N)c23)ccc1NS(=O)(=O)C(F)F)c1ccc(F)cc1 [Compound 116, (S)-N-(4-(4-amino-1-methyl-7-(1-(2,2,2-trifluoroethyl)-1H-pyrazol-4-yl)-1H-pyrazolo[4,3-c]pyridin-3-yl)-2-(1-(4-fluorophenyl)ethoxy)phenyl)-1,1-difluoromethanesulfonamide]

Second part, the compound before the results:

Structure (SMILES)	Kd (human RIPK3) [µM]	Kd (human RIPK1) [µM]
C[C@H](Oc1cc(-c2nn(C)c3c(-c4cnn(CC5CCCN5)c4)cnc(N)c23)ccc1NS(=O)(=O)C(F)F)c1ccc(F)cc1 (stereo partly drawn) [Compound 88, N-(4-(4-amino-1-methyl-7-(1-(pyrrolidin-2-ylmethyl)-1H-pyrazol-4-yl)-1H-pyrazolo[4,3-c]pyridin-3-yl)-2-((S)-1-(4-fluorophenyl)ethoxy)phenyl)-1,1-difluoromethane-sulfonamide]	> 10	> 10
C[C@H](Oc1cc(-c2nn(C)c3c(-c4cnn5c4CN(C)CC5)cnc(N)c23)ccc1NS(=O)(=O)C(F)F)c1ccc(F)cc1 [Compound 91, (S)—N-(4-(4-amino-1-methyl-7-(5-methyl-4,5,6,7-tetrahydropyrazolo[1,5-a]pyrazin-3-yl)-1H-pyrazolo[4,3-c]pyridin-3-yl)-2-(1-(4-fluorophenyl)ethoxy)phenyl)-1,1-difluoromethanesulfonamide]	> 10	> 10
C[C@H](Oc1cc(-c2nn(C)c3c(-c4ccc(N5CCN(C)CC5)nc4)cnc(N)c23)ccc1NS(=O)(=O)C(F)F)c1ccc(F)cc1 [Compound 107, (S)-N-(4-(4-amino-1-methyl-7-(6-(4-methylpiperazin-1-yl)pyridin-3-yl)-1H-pyrazolo[4,3-c]pyridin-3-yl)-2-(1-(4-fluorophenyl)ethoxy)phenyl)-1,1-difluoromethanesulfonamide]	> 10	> 10
COC[C@H](Oc1cc(-c2nn(C)c3c(-c4cnn(C5CCOCC5)c4)cnc(N)c23)ccc1NS(=O)(=O)C(F)F)c1ccc(F)cc1 [Compound 111, (R)—N-(4-(4-amino-1-methyl-7-(1-(tetrahydro-2H-pyran-4-yl)-1H-pyrazol-4-yl)-1H-pyrazolo[4,3-c]pyridin-3-yl)-2-(1-(4-fluorophenyl)-2-methoxyethoxy)phenyl)-1,1-difluoromethanesulfonamide]	> 10	> 10
C[C@H](Oc1cc(-c2nn(C)c3c(-c4ccc(C(F)(F)F)nc4)cnc(N)c23)ccc1NS(=O)(=O)C(F)F)c1ccc(F)cc1 [Compound 117, (S)-N-(4-(4-amino-1-methyl-7-(6-(trifluoromethyl)pyridin-3-yl)-1H-pyrazolo[4,3-c]pyridin-3-yl)-2-(1-(4-fluorophenyl)ethoxy)phenyl)-1,1-difluoromethanesulfonamide]	> 10	> 10
C[C@H](Oc1cc(-c2nn(C)c3c(-c4cnn(C5CCOCC5)c4)cnc(N)c23)ccc1NS(=O)(=O)C(F)F)c1ccccc1F [Compound 118, (S)-N-(4-(4-amino-1-methyl-7-(1-(tetrahydro-2H-pyran-4-yl)-1H-pyrazol-4-yl)-1H-pyrazolo[4,3-c]pyridin-3-yl)-2-(1-(2-fluoro-phenyl)ethoxy)phenyl)-1,1-difluoromethane-sulfonamide]	> 10	> 10
C[C@H](Oc1cc(-c2nn(C)c3c(-c4cnn(C5CCOCC5)c4)cnc(N)c23)ccc1NS(C)(=O)=O)c1ccc(F)cc1 [Compound 119, (S)-N-(4-(4-amino-1-methyl-7-(1-(tetrahydro-2H-pyran-4-yl)-1H-pyrazol-4-yl)-1H-pyrazolo[4,3-c]pyridin-3-yl)-2-(1-(4-fluorophenyl)ethoxy)phe-nyl)methanesulfonamide]	> 10	> 10
C[C@H](Oc1cc(-c2nn(C)c3c(-c4cnn(C5CCC(F)(F)C5)c4)cnc(N)c23)ccc1NS(=O)(=O)C(F)F)c1ccc(F)cc1 (stereo partly drawn) [Compound 120, N-(4-{4-amino-7-[1-(3,3-difluorocyclopentyl)-1H-pyrazol-4-yl]-1-methyl-1H-pyrazolo[4,3-c]pyridin-3-yl}-2-[(1S)-1-(4-fluorophenyl)ethoxy]phenyl)-1,1-difluoromethanesulfonamide]	> 10	> 10
